Results published in article PMC8620908, “Design, Synthesis, In Vitro Anticancer Evaluation and Molecular Modelling Studies of 3,4,5-Trimethoxyphenyl-Based Derivatives as Dual EGFR/HDAC Hybrid Inhibitors” (Pharmaceuticals, 2021).
Several values for one entry are separate records, joined by “and”; a condition that tells them apart may be missing. Identical values can stand only once. Entries after “also recorded” stand apart in the source; their conditions may differ.

What was measured:
[1] = test system: A549; test: Antiproliferative MTT assay, A549; details: Homo sapiens, A549, read-out: Antiproliferative Activity IC50 ± SEM, A549
[2] = biological target: EGFR (Homo sapiens, UniProt P00533); test: EGFR-TK inhibition, cell-free assay; assay type: biochemical
Sequence of EGFR (Homo sapiens, UniProt P00533) (P00533 25-1210): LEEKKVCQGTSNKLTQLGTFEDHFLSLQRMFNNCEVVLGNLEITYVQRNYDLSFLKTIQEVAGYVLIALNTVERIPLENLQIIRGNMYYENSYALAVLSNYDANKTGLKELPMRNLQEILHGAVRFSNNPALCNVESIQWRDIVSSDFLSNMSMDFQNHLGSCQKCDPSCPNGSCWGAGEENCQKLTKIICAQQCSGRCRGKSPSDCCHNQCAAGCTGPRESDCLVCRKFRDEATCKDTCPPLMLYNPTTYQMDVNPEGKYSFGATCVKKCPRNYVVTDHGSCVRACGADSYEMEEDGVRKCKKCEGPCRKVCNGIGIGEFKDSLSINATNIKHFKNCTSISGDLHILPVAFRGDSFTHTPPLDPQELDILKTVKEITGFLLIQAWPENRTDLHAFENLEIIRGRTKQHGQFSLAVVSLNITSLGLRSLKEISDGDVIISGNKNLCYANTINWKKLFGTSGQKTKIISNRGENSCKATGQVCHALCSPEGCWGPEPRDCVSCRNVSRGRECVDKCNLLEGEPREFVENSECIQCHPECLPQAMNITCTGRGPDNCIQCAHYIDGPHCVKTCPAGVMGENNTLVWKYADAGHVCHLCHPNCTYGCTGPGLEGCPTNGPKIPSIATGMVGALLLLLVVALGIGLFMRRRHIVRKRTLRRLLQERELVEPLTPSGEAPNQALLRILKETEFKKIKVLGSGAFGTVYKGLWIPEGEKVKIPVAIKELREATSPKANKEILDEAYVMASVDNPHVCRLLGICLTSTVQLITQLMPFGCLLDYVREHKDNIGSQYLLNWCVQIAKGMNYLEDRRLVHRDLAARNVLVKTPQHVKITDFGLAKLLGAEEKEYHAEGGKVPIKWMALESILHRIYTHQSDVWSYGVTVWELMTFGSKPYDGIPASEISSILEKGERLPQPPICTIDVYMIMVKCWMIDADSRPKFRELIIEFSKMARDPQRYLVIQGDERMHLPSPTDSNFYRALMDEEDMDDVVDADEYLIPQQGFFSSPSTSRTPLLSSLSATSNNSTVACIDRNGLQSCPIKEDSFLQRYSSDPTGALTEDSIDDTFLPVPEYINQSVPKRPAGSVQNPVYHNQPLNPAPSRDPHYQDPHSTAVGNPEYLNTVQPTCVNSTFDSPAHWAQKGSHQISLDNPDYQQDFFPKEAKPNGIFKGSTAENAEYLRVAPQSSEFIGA

[3] = test system: Bax; test: Bax level assay in HepG2 cancer cell line; assay type: cell-based
[4] = test system: Bcl-2; test: Bcl-2 level assay in HepG2 cancer cell line; assay type: cell-based; details: HepG2, versus control
[5] = test system: HCT116; test: Antiproliferative MTT assay, HCT116; details: Homo sapiens, HCT-116, read-out: Antiproliferative Activity IC50 ± SEM, HCT116
[6] = test system: HepG2 cancer cell line; test: Cell apoptosis assay, Annexin V/PI flow cytometry; assay type: cell-based
Procedure: Apoptosis was determined by flow cytometry based on the Annexin-V-fluoresce in isothiocyanate (FITC) and propidium iodide (PI) staining kit (BD Pharmingen, San Diego, CA, USA). See Section 4.2.5 in Supplementary Materials.
4.2.5. Cell apoptosis assay
Apoptosis was determined by flow cytometry based on the Annexin-V-fluoresce in isothiocyanate (FITC) and propidium iodide (PI) staining kit (BD Pharmingen, San Diego, USA). Apoptotic cells were defined as Annexin-V-positive. Cells were grown to approximately ∼70% confluence and exposed to different concentrations of compounds (0, 2, 4, 6 and8 μmol/L) for 24 h. Treated cells were trypsinized, washed twice with PBS and transferred into micro centrifuge tubes for centrifugation at1000 rpm for 5 min at room temperature, then resuspended in binding buffer, 5 μL of FITC and PI were added to per eppendorf tube, cells were vortexed, incubated for 15 min at room temperature in dark. Subsequently, cells were analyzed by flow cytometry (Becton Dickinson, Franklin Lakes, USA).
4.3. Statistical analysis
Computerized GraphPad Prism software was used to statistically analyzed data using one-way ANOVA test followed by Tukey’s as post ANOVA for multiple comparison at P ≤.05. Data were presented as mean ± SEM. […]

[7] = test system: Caspase-8; test: Caspase-8 level assay in HepG2 cancer cell line; assay type: cell-based, human
[8] = biological target: HDAC4 (Homo sapiens, UniProt P56524); test: In vitro HDAC inhibition assay, HDAC4
Sequence of HDAC4 (P56524 whole entry): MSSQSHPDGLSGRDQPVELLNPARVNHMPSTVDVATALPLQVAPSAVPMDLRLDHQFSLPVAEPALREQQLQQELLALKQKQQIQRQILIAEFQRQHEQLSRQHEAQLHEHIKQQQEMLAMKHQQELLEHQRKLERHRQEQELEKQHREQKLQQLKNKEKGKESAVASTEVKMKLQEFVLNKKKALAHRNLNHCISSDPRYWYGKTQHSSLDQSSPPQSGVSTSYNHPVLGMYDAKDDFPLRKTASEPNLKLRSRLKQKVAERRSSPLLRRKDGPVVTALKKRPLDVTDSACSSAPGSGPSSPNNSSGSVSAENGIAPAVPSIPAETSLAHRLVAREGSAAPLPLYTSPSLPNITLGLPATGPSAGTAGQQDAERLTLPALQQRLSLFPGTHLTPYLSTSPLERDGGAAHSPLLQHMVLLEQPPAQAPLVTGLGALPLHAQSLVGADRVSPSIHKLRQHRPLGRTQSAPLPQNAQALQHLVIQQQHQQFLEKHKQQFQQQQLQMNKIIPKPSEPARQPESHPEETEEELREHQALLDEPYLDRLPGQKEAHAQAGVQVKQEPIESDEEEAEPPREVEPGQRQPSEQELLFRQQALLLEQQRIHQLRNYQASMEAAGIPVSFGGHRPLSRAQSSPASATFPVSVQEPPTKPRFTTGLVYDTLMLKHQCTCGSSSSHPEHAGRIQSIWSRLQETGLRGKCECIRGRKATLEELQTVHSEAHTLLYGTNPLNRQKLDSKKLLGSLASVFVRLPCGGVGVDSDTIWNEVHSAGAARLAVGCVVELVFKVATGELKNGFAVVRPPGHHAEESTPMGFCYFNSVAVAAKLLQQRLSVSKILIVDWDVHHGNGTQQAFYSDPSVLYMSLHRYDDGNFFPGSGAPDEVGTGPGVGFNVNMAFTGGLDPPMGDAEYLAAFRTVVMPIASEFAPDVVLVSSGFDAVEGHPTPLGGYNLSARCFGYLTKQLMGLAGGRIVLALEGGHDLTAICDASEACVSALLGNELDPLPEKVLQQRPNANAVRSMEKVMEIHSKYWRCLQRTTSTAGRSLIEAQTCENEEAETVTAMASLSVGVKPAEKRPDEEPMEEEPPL

[9] = test system: HepG2 cancer cell line; test: Flow cytometric cell cycle analysis; assay type: cell-based
[10] = biological target: HDAC1 (Homo sapiens, UniProt Q13547); test: In vitro HDAC inhibition assay, HDAC1
Sequence of HDAC1 (Q13547 whole entry): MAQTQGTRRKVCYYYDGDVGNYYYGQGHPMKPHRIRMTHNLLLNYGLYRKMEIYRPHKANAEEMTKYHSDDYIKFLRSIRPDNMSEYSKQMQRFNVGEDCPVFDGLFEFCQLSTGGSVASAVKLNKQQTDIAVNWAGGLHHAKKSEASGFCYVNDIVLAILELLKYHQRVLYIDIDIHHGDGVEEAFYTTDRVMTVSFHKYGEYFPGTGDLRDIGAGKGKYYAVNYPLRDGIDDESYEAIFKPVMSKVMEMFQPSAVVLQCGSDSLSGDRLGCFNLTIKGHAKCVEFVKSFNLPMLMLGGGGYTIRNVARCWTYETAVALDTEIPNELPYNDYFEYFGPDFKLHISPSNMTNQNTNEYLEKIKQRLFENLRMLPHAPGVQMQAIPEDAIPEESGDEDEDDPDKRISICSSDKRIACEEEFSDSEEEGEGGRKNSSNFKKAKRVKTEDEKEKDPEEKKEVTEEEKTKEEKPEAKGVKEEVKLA

[11] = test system: HDAC6; test: Western blot assay, HDAC6 in HepG2; assay type: cell-based; details: HepG2, 4b used at its IC50 of 0.536 µM
Procedure: (§1) Western blot assay was carried out according to the previously reported protocol.

[12] = test system: HepG2; test: Antiproliferative MTT assay, HepG2; details: Homo sapiens, HepG2, read-out: Antiproliferative Activity IC50 ± SEM, HepG2
[13] = test system: Caspase-3; test: Caspase-3 level assay in HepG2 cancer cell line; assay type: cell-based, human
[14] = test system: MCF-7; test: Antiproliferative MTT assay, MCF-7; details: Homo sapiens, MCF7, read-out: Antiproliferative Activity IC50 ± SEM, MCF-7
[15] = biological target: T1, HDAC8 (Homo sapiens, UniProt Q9BY41); test: In vitro HDAC inhibition assay, HDAC8
T1 sequence (Q9BY41 1-377): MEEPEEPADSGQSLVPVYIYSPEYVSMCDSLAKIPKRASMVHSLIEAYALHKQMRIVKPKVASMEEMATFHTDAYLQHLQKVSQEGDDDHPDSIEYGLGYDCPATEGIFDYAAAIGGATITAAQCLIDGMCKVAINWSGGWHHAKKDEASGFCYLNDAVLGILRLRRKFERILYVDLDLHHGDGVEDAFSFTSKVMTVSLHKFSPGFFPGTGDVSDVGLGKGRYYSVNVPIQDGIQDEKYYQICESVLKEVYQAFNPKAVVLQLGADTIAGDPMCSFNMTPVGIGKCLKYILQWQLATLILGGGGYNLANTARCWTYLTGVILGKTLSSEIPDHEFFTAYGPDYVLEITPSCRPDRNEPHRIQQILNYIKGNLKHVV

[16] = biological target: T2, HDAC6 (Homo sapiens, UniProt Q9UBN7); test: In vitro HDAC inhibition assay, HDAC6
T2 sequence (Q9UBN7 1-1215): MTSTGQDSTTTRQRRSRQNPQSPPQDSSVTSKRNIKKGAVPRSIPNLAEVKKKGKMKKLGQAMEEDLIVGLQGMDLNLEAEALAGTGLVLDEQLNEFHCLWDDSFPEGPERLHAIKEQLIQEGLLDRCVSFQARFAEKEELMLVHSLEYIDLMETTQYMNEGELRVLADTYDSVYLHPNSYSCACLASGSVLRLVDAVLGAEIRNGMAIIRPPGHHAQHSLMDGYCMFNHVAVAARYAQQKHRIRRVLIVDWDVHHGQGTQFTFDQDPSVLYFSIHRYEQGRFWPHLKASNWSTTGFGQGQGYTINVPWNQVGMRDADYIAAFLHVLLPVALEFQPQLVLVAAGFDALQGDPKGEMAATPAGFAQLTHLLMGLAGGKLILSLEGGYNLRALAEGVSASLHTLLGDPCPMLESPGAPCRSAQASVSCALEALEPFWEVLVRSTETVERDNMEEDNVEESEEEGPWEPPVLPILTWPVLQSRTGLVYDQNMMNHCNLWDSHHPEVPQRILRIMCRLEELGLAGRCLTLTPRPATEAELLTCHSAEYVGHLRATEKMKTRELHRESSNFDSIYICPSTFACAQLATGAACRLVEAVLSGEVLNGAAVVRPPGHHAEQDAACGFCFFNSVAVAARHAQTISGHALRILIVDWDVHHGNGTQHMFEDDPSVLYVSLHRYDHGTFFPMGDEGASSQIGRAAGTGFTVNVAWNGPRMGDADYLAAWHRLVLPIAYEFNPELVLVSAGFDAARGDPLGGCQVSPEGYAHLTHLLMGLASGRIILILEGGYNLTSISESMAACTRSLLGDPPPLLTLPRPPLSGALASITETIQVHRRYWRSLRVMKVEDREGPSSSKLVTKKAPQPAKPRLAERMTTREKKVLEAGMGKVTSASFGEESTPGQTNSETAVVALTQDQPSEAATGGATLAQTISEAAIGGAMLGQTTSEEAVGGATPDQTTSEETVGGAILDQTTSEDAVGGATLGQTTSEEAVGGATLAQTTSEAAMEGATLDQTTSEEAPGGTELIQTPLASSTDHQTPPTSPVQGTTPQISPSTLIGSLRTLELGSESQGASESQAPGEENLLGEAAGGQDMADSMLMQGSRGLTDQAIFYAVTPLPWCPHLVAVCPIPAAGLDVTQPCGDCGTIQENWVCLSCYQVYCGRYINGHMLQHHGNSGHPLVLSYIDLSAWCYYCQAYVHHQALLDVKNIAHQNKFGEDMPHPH

[17] = biological target: HDAC2 (Homo sapiens, UniProt Q92769); test: In vitro HDAC inhibition assay, HDAC2
Sequence of HDAC2 (Q92769 whole entry): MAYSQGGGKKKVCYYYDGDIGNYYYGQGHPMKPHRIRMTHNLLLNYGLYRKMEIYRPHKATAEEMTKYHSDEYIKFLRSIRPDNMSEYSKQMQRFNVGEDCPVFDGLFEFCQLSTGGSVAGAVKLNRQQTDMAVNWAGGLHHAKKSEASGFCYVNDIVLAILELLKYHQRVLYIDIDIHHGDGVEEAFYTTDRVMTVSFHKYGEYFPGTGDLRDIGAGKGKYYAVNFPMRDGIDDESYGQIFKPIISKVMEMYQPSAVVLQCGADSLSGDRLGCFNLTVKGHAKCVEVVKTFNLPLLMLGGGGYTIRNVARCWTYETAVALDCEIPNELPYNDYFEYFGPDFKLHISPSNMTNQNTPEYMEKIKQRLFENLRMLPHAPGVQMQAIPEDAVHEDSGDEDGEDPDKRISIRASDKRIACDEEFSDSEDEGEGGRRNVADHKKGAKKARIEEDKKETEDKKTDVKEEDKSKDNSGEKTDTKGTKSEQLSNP

[18] = test system: EGFR; test: Western blot assay, EGFR in HepG2; assay type: cell-based; details: HepG2, 4b used at its IC50 of 0.536 µM
Procedure: as §1

IC50 [1]: 0.797 ± 0.04 µM
IC50 [2]: 0.063 ± 0.002 µM
IC50 [5]: 1.21 ± 0.07 µM
IC50 [8]: 5.85 µM
IC50 [10]: 0.148 µM
IC50 [12]: 0.536 ± 0.03 µM
IC50 [14]: 0.621 ± 0.03 µM
IC50 [15]: 2.26 µM
IC50 [16]: 0.06 µM
IC50 [17]: 0.168 µM
Structure (SMILES): COc1cc(/C=C/C(=O)c2ccc(OCCCCCC(=O)NO)cc2)cc(OC)c1OC [4b, (E)-N-Hydroxy-6-(4-(3-(3,4,5-Trimethoxyphenyl)Acryloyl)Phenoxy) Hexanamide]
Bax Fold Change ([3]; HepG2, versus control): 3.75 fold
Bax Conc ([3]; HepG2 cancer cell line): 398.9 ± 14.3 pg/mL
Bcl-2 Fold Change [4]: 0.42 fold
Apoptosis Late ([6]; control 0.12): 24.67
percentage of cell apoptosis (late; upper right quadrant Annexin V/PI) ([6]; control 0.12%): 24.67%
Apoptosis Early ([6]; control 0.34): 9.33
Necrosis ([6]; control 1.7): 13.21
Apoptosis Total ([6]; control 2.16): 47.21
Caspase-8 Fold Change ([7]; HepG2, versus control): 3.15 fold
Caspase-8 Conc ([7]; HepG2 cancer cell line): 1.078 ng/mL and 1.078 ± 0.046 ng/mL
Comment (cell cycle arrest) [9]: cell cycle arrest at G1/S phase; also recorded: cell growth arrest at G1/S
%Pre-G1 ([9]; control 2.16): 47.21%
%G2/M ([9]; control 20.45): 7.85%
%S ([9]; control 36.58): 39.11%
%G0–G1 ([9]; control 42.97): 53.04%
HDAC6 expression (Western blot) [11]: decrease
Caspase-3 Conc [13]: 483.2 pg/mL and 483.2 ± 14.72 pg/mL
EGFR expression (Western blot) [18]: decrease
